Legend:
Experiment in all cases: cells
KARPAS-299 = format: functional, cell-based, Homo sapiens; conditions: Homo sapiens, KARPAS-299
Description: SANGER: Inhibition of human KARPAS-299 cell growth in a cell viability assay.

K5 = format: functional, cell-based, Homo sapiens; conditions: Homo sapiens, K5
Description: SANGER: Inhibition of human K5 cell growth in a cell viability assay.

TGBC24TKB = format: functional, cell-based, Homo sapiens; conditions: Homo sapiens, TGBC24TKB
Description: SANGER: Inhibition of human TGBC24TKB cell growth in a cell viability assay.

KE-37 = format: functional, cell-based, Homo sapiens; conditions: Homo sapiens, KE-37
Description: SANGER: Inhibition of human KE-37 cell growth in a cell viability assay.

Lu-65 = format: functional, cell-based, Homo sapiens; conditions: Homo sapiens, Lu-65
Description: SANGER: Inhibition of human LU-65 cell growth in a cell viability assay.

SCH = format: functional, cell-based, Homo sapiens; conditions: Homo sapiens, SCH
Description: SANGER: Inhibition of human SCH cell growth in a cell viability assay.

RS4-11 = format: functional, cell-based, Homo sapiens; conditions: Homo sapiens, RS4-11
Description: SANGER: Inhibition of human RS4-11 cell growth in a cell viability assay.

NCI-H1650 = format: functional, cell-based, Homo sapiens; conditions: Homo sapiens, NCI-H1650
Description: SANGER: Inhibition of human NCI-H1650 cell growth in a cell viability assay.

D-502MG = format: functional, cell-based, Homo sapiens; conditions: Homo sapiens, D-502MG
Description: SANGER: Inhibition of human D-502MG cell growth in a cell viability assay.

Ramos-2G6-4C10 = format: functional, cell-based, Homo sapiens; conditions: Homo sapiens, Ramos-2G6-4C10
Description: SANGER: Inhibition of human Ramos-2G6-4C10 cell growth in a cell viability assay.

NCI-H1648 = format: functional, cell-based, Homo sapiens; conditions: Homo sapiens, NCI-H1648
Description: SANGER: Inhibition of human NCI-H1648 cell growth in a cell viability assay.

SJSA-1 = format: functional, cell-based, Homo sapiens; conditions: Homo sapiens, SJSA-1
Description: SANGER: Inhibition of human SJSA-1 cell growth in a cell viability assay.

SNU-5 = format: functional, cell-based, Homo sapiens; conditions: Homo sapiens, SNU-5
Description: SANGER: Inhibition of human NCI-SNU-5 cell growth in a cell viability assay.

LB771-HNC = format: functional, cell-based, Homo sapiens; conditions: Homo sapiens, LB771-HNC
Description: SANGER: Inhibition of human LB771-HNC cell growth in a cell viability assay.

MHH-NB-11 = format: functional, cell-based, Homo sapiens; conditions: Homo sapiens, MHH-NB-11
Description: SANGER: Inhibition of human MHH-NB-11 cell growth in a cell viability assay.

LU-139 = format: functional, cell-based, Homo sapiens; conditions: Homo sapiens, LU-139
Description: SANGER: Inhibition of human LU-139 cell growth in a cell viability assay.

GI-1 = format: functional, cell-based, Homo sapiens; conditions: Homo sapiens, GI-1
Description: SANGER: Inhibition of human GI-1 cell growth in a cell viability assay.

LS-1034 = format: functional, cell-based, Homo sapiens; conditions: Homo sapiens, LS-1034
Description: SANGER: Inhibition of human LS-1034 cell growth in a cell viability assay.

KNS-42 = format: functional, cell-based, Homo sapiens; conditions: Homo sapiens, KNS-42
Description: SANGER: Inhibition of human KNS-42 cell growth in a cell viability assay.

NCI-H82 = format: functional, cell-based, Homo sapiens; conditions: Homo sapiens, NCI-H82
Description: SANGER: Inhibition of human NCI-H82 cell growth in a cell viability assay.

NEC8 = format: functional, cell-based, Homo sapiens; conditions: Homo sapiens, NEC8
Description: SANGER: Inhibition of human NEC8 cell growth in a cell viability assay.

TE-11 = format: functional, cell-based, Homo sapiens; conditions: Homo sapiens, TE-11
Description: SANGER: Inhibition of human TE-11 cell growth in a cell viability assay.

OVCAR-4 = format: functional, cell-based, Homo sapiens; conditions: Homo sapiens, OVCAR-4
Description: SANGER: Inhibition of human OVCAR-4 cell growth in a cell viability assay.

TGW = format: functional, cell-based, Homo sapiens; conditions: Homo sapiens, TGW
Description: SANGER: Inhibition of human TGW cell growth in a cell viability assay.

DJM-1 = format: functional, cell-based, Homo sapiens; conditions: Homo sapiens, DJM-1
Description: SANGER: Inhibition of human DJM-1 cell growth in a cell viability assay.

DMS-114 = format: functional, cell-based, Homo sapiens; conditions: Homo sapiens, DMS-114
NCI-H226 = format: functional, cell-based, Homo sapiens; conditions: Homo sapiens, NCI-H226
Description: SANGER: Inhibition of human NCI-H226 cell growth in a cell viability assay.

ATN-1 = format: functional, cell-based, Homo sapiens; conditions: Homo sapiens, ATN-1
Description: SANGER: Inhibition of human ATN-1 cell growth in a cell viability assay.

BB30-HNC = format: functional, cell-based, Homo sapiens; conditions: Homo sapiens, BB30-HNC
Description: SANGER: Inhibition of human BB30-HNC cell growth in a cell viability assay.

LB2518-MEL = format: functional, cell-based, Homo sapiens; conditions: Homo sapiens, LB2518-MEL
Description: SANGER: Inhibition of human LB2518-MEL cell growth in a cell viability assay.

COR-L88 = format: functional, cell-based, Homo sapiens; conditions: Homo sapiens, COR-L88
Description: SANGER: Inhibition of human COR-L88 cell growth in a cell viability assay.

OMC-1 = format: functional, cell-based, Homo sapiens; conditions: Homo sapiens, OMC-1
Description: SANGER: Inhibition of human OMC-1 cell growth in a cell viability assay.

EW-18 = format: functional, cell-based, Homo sapiens; conditions: Homo sapiens, EW-18
Description: SANGER: Inhibition of human EW-18 cell growth in a cell viability assay.

MOLT-16 = format: functional, cell-based, Homo sapiens; conditions: Homo sapiens, MOLT-16
Description: SANGER: Inhibition of human MOLT-16 cell growth in a cell viability assay.

NB10 = format: functional, cell-based, Homo sapiens; conditions: Homo sapiens, NB10
Description: SANGER: Inhibition of human NB10 cell growth in a cell viability assay.

COLO-824 = format: functional, cell-based, Homo sapiens; conditions: Homo sapiens, COLO-824
Description: SANGER: Inhibition of human COLO-824 cell growth in a cell viability assay.

KM-H2 = format: functional, cell-based, Homo sapiens; conditions: Homo sapiens, KM-H2
Description: SANGER: Inhibition of human KM-H2 cell growth in a cell viability assay.

LOX IMVI = format: functional, cell-based, Homo sapiens; conditions: Homo sapiens, LOX IMVI
Description: SANGER: Inhibition of human LOXIMVI cell growth in a cell viability assay.

HuTu80 = format: functional, cell-based, Homo sapiens, HUTU-80; conditions: Homo sapiens, HuTu80
Description: SANGER: Inhibition of human HUTU-80 cell growth in a cell viability assay.

AM-38 = format: functional, cell-based, Homo sapiens; conditions: Homo sapiens, AM-38
Description: SANGER: Inhibition of human AM-38 cell growth in a cell viability assay.

MSTO-211H = format: functional, cell-based, Homo sapiens; conditions: Homo sapiens, MSTO-211H
Description: SANGER: Inhibition of human MSTO-211H cell growth in a cell viability assay.

HCC1187 = format: functional, cell-based, Homo sapiens; conditions: Homo sapiens, HCC1187
Description: SANGER: Inhibition of human HCC1187 cell growth in a cell viability assay.

ES5 = format: functional, cell-based, Homo sapiens; conditions: Homo sapiens, ES5
Description: SANGER: Inhibition of human ES5 cell growth in a cell viability assay.

HH = format: functional, cell-based, Homo sapiens; conditions: Homo sapiens, HH
Description: SANGER: Inhibition of human HH cell growth in a cell viability assay.

LB831-BLC = format: functional, cell-based, Homo sapiens; conditions: Homo sapiens, LB831-BLC
Description: SANGER: Inhibition of human LB831-BLC cell growth in a cell viability assay.

ALL-PO = format: functional, cell-based, Homo sapiens; conditions: Homo sapiens, ALL-PO
Description: SANGER: Inhibition of human ALL-PO cell growth in a cell viability assay.

SNB-75 = format: functional, cell-based, Homo sapiens; conditions: Homo sapiens, SNB-75
Description: SANGER: Inhibition of human SNB75 cell growth in a cell viability assay.

KALS-1 = format: functional, cell-based, Homo sapiens; conditions: Homo sapiens, KALS-1
Description: SANGER: Inhibition of human KALS-1 cell growth in a cell viability assay.

HC-1 = format: functional, cell-based, Homo sapiens; conditions: Homo sapiens, HC-1
Description: SANGER: Inhibition of human HC-1 cell growth in a cell viability assay.

## N[C@@H](CSC(c1ccccc1)(c1ccccc1)c1ccccc1)C(=O)O [S-TRITYL-L-CYSTEINE]
KARPAS-299
  IC50: 4180 nM
K5
  IC50: 1040 nM
TGBC24TKB
  IC50: 2220 nM
KE-37
  IC50: 430 nM
Lu-65
  IC50: > 5120 nM
SCH
  IC50: 2500 nM
RS4-11
  IC50: 1300 nM
NCI-H1650
  IC50: > 5120 nM
D-502MG
  IC50: > 5120 nM
Ramos-2G6-4C10
  IC50: 1550 nM
NCI-H1648
  IC50: 602 nM
SJSA-1
  IC50: 750 nM
SNU-5
  IC50: > 5120 nM
LB771-HNC
  IC50: 1950 nM
MHH-NB-11
  IC50: 4670 nM
LU-139
  IC50: 2910 nM
GI-1
  IC50: > 5120 nM
LS-1034
  IC50: 2780 nM
KNS-42
  IC50: 2580 nM
NCI-H82
  IC50: 1200 nM
NEC8
  IC50: 2690 nM
TE-11
  IC50: 451 nM
OVCAR-4
  IC50: 3800 nM
TGW
  IC50: > 5120 nM
DJM-1
  IC50: > 5120 nM
DMS-114
  IC50: 3260 nM
NCI-H226
  IC50: > 5120 nM
ATN-1
  IC50: 859 nM
BB30-HNC
  IC50: 1190 nM
LB2518-MEL
  IC50: 3710 nM
COR-L88
  IC50: > 5120 nM
OMC-1
  IC50: > 5120 nM
EW-18
  IC50: > 5120 nM
MOLT-16
  IC50: 1890 nM
NB10
  IC50: > 5120 nM
COLO-824
  IC50: > 5120 nM
KM-H2
  IC50: 2900 nM
LOX IMVI
  IC50: > 5120 nM
HuTu80
  IC50: 546 nM
AM-38
  IC50: > 5120 nM
MSTO-211H
  IC50: > 5120 nM
HCC1187
  IC50: > 5120 nM
ES5
  IC50: > 5120 nM
HH
  IC50: 3510 nM
LB831-BLC
  IC50: > 5120 nM
ALL-PO
  IC50: 2250 nM
SNB-75
  IC50: 2770 nM
KALS-1
  IC50: 1320 nM
HC-1
  IC50: 1050 nM

Source: ChEMBL document CHEMBL1201861, “Genomics of Drug Sensitity in Cancer screening data, Wellcome Trust Sanger Institute”
